The test system of one assay is HCT-116 cells. Put plainly: MTT cytotoxicity assay, HCT-116. Particulars: Homo sapiens, HCT-116; MTT, incubation time 24 h. In kind it is cell-based, human. Here is the method: (§1) An in vitro biological test package was performed for the obtained derivatives. […] The MTT test is a colorimetric method for detecting proliferating cells. It is based on the ability of the enzyme mitochondrial dehydrogenase to convert yellow tetrazole salt (MTT) into purple formazan. The amount of the product formed in the reaction, determined spectrophotometrically, is proportional to the number of living cells.
(§2) The in vitro cytotoxicity of the test compounds was determined by the MTT (3-[4,5–dimethylthiazol-2-yl]-2,5-diphenyltetrazolium bromide) test (Sigma-Aldrich, Taufkirchen, Germany) according to the manufacturer’s protocol. At the beginning, for each cell line were determined the optimal seeding densities to ensure exponential growth throughout the experimental period. The confluent layer of cells were trypsinized, collected, and suspended in a growth medium. […] Then, the culture medium was replaced with solutions of different concentrations of test compounds in a fresh medium. Stock solutions of test compounds were prepared in DMSO and diluted to final concentrations with appropriate volumes of the growth medium directly before the experiment. Cells suspended in a medium supplemented with 0.5% DMSO (the amount of DMSO necessary to dissolve the highest dose of the respective sample) were used as a control of the experiment. […] The compound-treated cells were incubated for a further 24–72 h. […] After this time, the MTT dye was carefully removed, and the acquired formazan crystals were dissolved by DMSO (Chempur, Piekary Śląskie, Poland). The proliferation was evaluated by measuring the formazan product’s absorbance at a wavelength of 570 nm with a microplate spectrophotometer (Epoch, BioTek, Winooski, VT, USA). All experiments were conducted in triplicate with four technical repeats for each tested concentration. Results were expressed as the percentage change in the viability of the test cells relative to the untreated control cells and calculated as the inhibitory concentration (IC50). […] The results are expressed as the average value ± standard deviation (SD).

The subject of the next assay is MCF-7 cells. Put plainly: MTT cytotoxicity assay, MCF-7. Particulars: Homo sapiens, MCF7; MTT, incubation time 72 h. In kind it is cell-based, human. Here is the method:
as §1, §2
In general terms: Tetrazolium dyes change colour on reduction, which living cells bring about.

This note sets out measurements from PMC9607644, “Glycoconjugation of Quinoline Derivatives Using the C-6 Position in Sugars as a Strategy for Improving the Selectivity and Cytotoxicity of Functionalized Compounds” (Molecules, 2022).

The term IC50 denotes the concentration needed to halve the response being measured. The low end stands for inhibition by little substance, the high end for a need for much substance.

As to `CC(=O)OC1O[C@H](Cn2cc(CO)nn2)[C@@H](OC(C)=O)[C@H](OC(C)=O)[C@H]1OC(C)=O` (stereo partly shown) [Compound 29], the IC50 in the assay with HCT-116 cells and in the assay with MCF-7 cells was more than 800 µM each time.

As for `[N-]=[N+]=NC[C@H]1OC(O)[C@H](O)[C@@H](O)[C@H]1O` (stereo partly drawn) [Compound 11, 6-azido-6-deoxy-D-galactopyranose], the IC50 in the assay with HCT-116 cells and in the assay with MCF-7 cells was more than 800 µM in each case.

With `C#CCNC(=O)[C@H]1OC(O)[C@H](O)[C@@H](O)[C@@H]1O` (stereo partly drawn) [Compound 16, N-(prop-2-yn-1-yl)-D-glucopyranuronic acid amide], the IC50 in the assay on HCT-116 cells and in the assay on MCF-7 cells was more than 800 µM throughout.

For the compound `CC(=O)O[C@@H]1[C@@H](OC(C)=O)[C@@H](O[C@H]2O[C@H](Cn3cc(CO)nn3)[C@@H](OC(C)=O)[C@H](OC(C)=O)[C@H]2OC(C)=O)O[C@H](Cn2cc(CO)nn2)[C@H]1OC(C)=O` [Compound 35], the IC50 with HCT-116 cells and in the assay on MCF-7 cells was more than 800 µM in each case.

Regarding `O=C(NCc1cn(CCO)nn1)[C@H]1OC(O)[C@H](O)[C@@H](O)[C@@H]1O` (stereo partly shown) [Compound 34], the IC50 in the assay on HCT-116 cells and in the assay on MCF-7 cells was more than 800 µM throughout.

Consider `CC(=O)OC1O[C@H](CN=[N+]=[N-])[C@@H](OC(C)=O)[C@H](OC(C)=O)[C@H]1OC(C)=O` (stereo partly drawn) [Compound 5, 1,2,3,4-tetra-O-acetyl-6-azido-6-deoxy-D-glucopyranose], for which the results for the IC50 with HCT-116 cells and in the assay with MCF-7 cells were more than 800 µM and 201 ± 2.09 µM, respectively.

Take `CC(=O)OC1O[C@H](C(=O)NCc2cn(CCO)nn2)[C@@H](OC(C)=O)[C@H](OC(C)=O)[C@H]1OC(C)=O` (stereo partly shown) [Compound 33]: the IC50 in the assay on HCT-116 cells and with MCF-7 cells was more than 800 µM in each case.

`C#CCNC(=O)[C@H]1O[C@@H](OC(C)=O)[C@H](OC(C)=O)[C@@H](OC(C)=O)[C@@H]1OC(C)=O` [Compound 15, 1,2,3,4-tetra-O-acetyl-N-(prop-2-yn-1-yl)-β-D-glucopyranuronic acid amide]: the figures for the 50% inhibitory concentration (IC50) in the assay on HCT-116 cells and in the assay on MCF-7 cells were 584 ± 9.39 µM and 714 ± 15.7 µM, respectively.

`CC(=O)OC1O[C@H](Cn2cc(CO)nn2)[C@H](OC(C)=O)[C@H](OC(C)=O)[C@H]1OC(C)=O` (stereo partly shown) [Compound 31]: the IC50 in the assay with HCT-116 cells and in the assay with MCF-7 cells was more than 800 µM throughout.

Consider `OCc1cn(C[C@H]2OC(O)[C@H](O)[C@@H](O)[C@@H]2O)nn1` (stereo partly shown) [Compound 30], for which the IC50 with HCT-116 cells and with MCF-7 cells was more than 800 µM in each case.

Take `CC(=O)OC1O[C@H](CN=[N+]=[N-])[C@H](OC(C)=O)[C@H](OC(C)=O)[C@H]1OC(C)=O` (stereo partly drawn) [Compound 12, 1,2,3,4-tetra-O-acetyl-6-azido-6-deoxy-D-galactopyranose]: the IC50 in the assay with HCT-116 cells is more than 800 µM; in the assay with MCF-7 cells, 641.2 ± 1.79 µM.

For the compound `[N-]=[N+]=NC[C@H]1OC(O)[C@H](O)[C@@H](O)[C@@H]1O` (stereo partly drawn) [Compound 6, 6-azido-6-deoxy-D-glucopyranose], the IC50 in the assay on HCT-116 cells and in the assay on MCF-7 cells was more than 800 µM each time.

Regarding `OCc1cn(C[C@H]2OC(O)[C@H](O)[C@@H](O)[C@H]2O)nn1` (stereo partly shown) [Compound 32], the 50% inhibitory concentration (IC50) with HCT-116 cells and with MCF-7 cells was more than 800 µM throughout.

As to `OCc1cn(C[C@H]2O[C@H](O[C@H]3O[C@H](Cn4cc(CO)nn4)[C@@H](O)[C@H](O)[C@H]3O)[C@H](O)[C@@H](O)[C@@H]2O)nn1` [Compound 36], the IC50 in the assay with HCT-116 cells and in the assay with MCF-7 cells was more than 800 µM in each case.
